Measurements from US20110229450A1, “ENZYMES AND METHODS FOR DEGRADING S-TRIAZINES AND DIAZINES” (Commonwealth Scientific and industrial Research Organisation, priority 2008, published 2011).
Changes are numbered by the printed parent chain. Names may count otherwise. Read-outs that look alike come from different tables or passages of the source.

B1: TrzN Wildtype: Wild-type TrzN triazine hydrolase, SEQ ID NO:1; codon optimised open reading frame TrzNco, SEQ ID NO:2 (protein, listed as Arthrobacter aurescens)
chain: MILIRGLTRVITFDDQERELEDADILIDGPKIVAVGKDLSDRSVSRTIDGRGMIALPGLINSHQHLYEGAMRAIPQLERVTMASWLEGVLTRSAGWWRDGKFGPDVIREVARAVLLESLLGGITTVADQHLFFPGATADSYIDATIEAATDLGIRFHAARSSMTLGKSEGGFCDDLFVEPVDRVVQHCLGLIDQYHEPEPFGMVRIALGPCGVPYDKPELFEAFAQMAADYDVRLHTHFYEPLDAGMSDHLYGMTPWRFLEKHGWASDRVWLAHAVVPPREEIPEFADAGVAIAHLIAPDLRLGWGLAPIREYLDAGITVGFGTTGSASNDGGNLLGDLRLAALAHRPADPNEPEKWLSARELLRMATRGSAECLGRPDLGVLEEGRAADIACWRLDGVDRVGVHDPAIGLIMTGLSDRASLVVVNGQVLVENERPVLADLERIVANTTALIPKNL
B2: L335M (protein)
chain: B1 chain with L335M
B3: T91S (protein)
chain: B1 chain with T91S
B4: P210A (protein)
chain: B1 chain with P210A
B5: D38N (protein)
chain: B1 chain with D38N
B6: S161G (protein)
chain: B1 chain with S161G

Assays:
[1] = tested on: TrzN cc3.2; assay: Substrate range: hydrolysis of triazines by purified TrzN cc3.2 (loss of absorbance at 264 nm); format: biochemical; settings: for Hydrolysis by TrzN cc3.2: purified enzyme; for Relative Activity in TrzN cc3.2: specific activity at 100 μM substrate and 41 nM TrzN cc3.2, ametryn = 1
[2] = tested on: TrzN; settings: from Shapir et al. (2006); ametryn = 1; cited from earlier work
[3] = read-out: Kd for zinc; cited from earlier work
[4] = tested on: Apo-TrzNcc3.2; assay: Saturation of Apo-TrzNcc3.2 with Zn^2+; format: binding
[5] = format: cell-based, E. coli strain BL21 λDE3; settings: for Time to clear: 1% atrazine (w/v), 1 mM IPTG LB agar plates, 37° C., BL21 λDE3 pETcc2; for atrazine dechlorinase activity / clearing rate after substitution, compared with wild-type or parental gene: site-saturation and random mutagenesis
[6] = Atrazine clearing plate assay, low-level constitutive vector pCS150 in three E. coli strains; format: cell-based; settings: E. coli JM109, DH10β and BL21 λDE3, 37° C.
Description: Random and site-saturated libraries were screened using LB agar plates supplemented with 200 μg.mL^−1 ampicillin, 1 μM IPTG and impregnated with 1 mg.mL^−1 atrazine (90% atrazine w/w; Gesaprim 900 WG, Syngenta). […] The level of activity was determined by the rate at which the clarification occurred.
The entire coding region for both TrzNcc3.2 and wild-type TrzN were moved from the inducible, high-level expression vector pETcc2 into a low-level, constitutive expression vector (pCS150, Scott et al., 2009). The resultant vectors were used to transform E. coli JM109, DH10β, and BL21 λDE3 cells. The six resultant strains were tested for their rates of clearing using the atrazine clearing plate assay.

[7] = read-out: Km for atrazine; cited from earlier work
[8] = from 5 litres; Shapir et al. (2005); cited from earlier work

Row | Molecule | Hydrolysis by TrzN cc3.2 [1] | Relative Activity in TrzN cc3.2 [1] | also measured
1 | CCNc1nc(NCC)nc(SC)n1 [Simetryn, N2,N4-diethyl-6-methylthio-1,3,5-triazine-2,4-diamine] | able to hydrolyse | 0.57 | Relative Activity in TrzN* [2]: 0.14
2 | CCNc1nc(Cl)nc(N(CC)CC)n1 [Trietazine, 6-chloro-N,N,N′-triethyl-1,3,5-triazine-2,4-diamine] | able to hydrolyse | 0.04 | 
3 | superoxide dismutase |  |  | Kd [3]: 0.01 nM
4 | CSc1nc(NC(C)C)nc(NC(C)C)n1 [Prometryn, N2,N4-diisopropyl-6-methylthio-1,3,5-triazine-2,4-diamine] | able to hydrolyse | 1 | 
5 | CCN(CC)c1nc(Cl)nc(NC(C)C)n1 [Ipazine, 6-chloro-N,N-diethyl-N′-(1-methylethyl)-1,3,5-triazine-2,4-diamine] | able to hydrolyse | 0.07 | 
6 | CC(C)Nc1nc(Cl)nc(NC(C)C)n1 [Propazine, 6-chloro-N,N′-bis(1-methylethyl)-1,3,5-triazine-2,4-diamine] | able to hydrolyse | 0.86 | 
7 | CCNc1nc(Cl)nc(NC(C)C)n1 [Atrazine, 6-chloro-N-ethyl-N′-(1-methylethyl)-1,3,5-triazine-2,4-diamine] | able to hydrolyse | 1.36 | Relative Activity in TrzN* [2]: 0.16
8 | CCNc1nc(Cl)nc(NCC)n1 [Simazine, 6-chloro-N,N″-diethyl-1,3,5-triazine-2,4-diamine] | able to hydrolyse | 1.36 | Relative Activity in TrzN* [2]: 0.41
9 | CCNc1nc(NC(C)C)nc(SC)n1 [Ametryn, N2-ethyl-N4-isopropyl-6-methylthio-1,3,5-triazine-2,4-diamine] | able to hydrolyse | 1 | Relative Activity in TrzN* [2]: 1
10 | CCNc1nc(Cl)nc(NC(C)(C)C#N)n1 [Cyanozine, 2-[[4-chloro-6-(ethyamino)-1,3,5-triazin-2-yl]amino]-2-methylpropanenitrile] | able to hydrolyse | 0.43 | 
11 | [Zn+2] [Zn^2+] |  |  | EC50 ([4]; read-out: ZnCl2 concentration at which half maximal activity was recovered): 2600 nM; Kd ([4]; read-out: dissociation constant for Zn^2+): 2600 nM
12 | B1 |  |  | Time to clear [5]: None; Time to clear ([5]; listed as trzNco): > 30 days; Time to clear [6]: > 12 days; Km [7]: 20 µM; yield of partial purification [8]: 2.8 mg
13 | B2 |  |  | atrazine dechlorinase activity / clearing rate after substitution, compared with wild-type or parental gene [5]: improved activities
14 | B3 |  |  | atrazine dechlorinase activity / clearing rate after substitution, compared with wild-type or parental gene [5]: improved activities
15 | B4 |  |  | atrazine dechlorinase activity / clearing rate after substitution, compared with wild-type or parental gene [5]: improved activities
16 | B5 |  |  | clearing phenotype ([5]; D38X site saturation library in a L131P A159V background): apparently improved clearing phenotypes
17 | B6 |  |  | atrazine dechlorinase activity / clearing rate after substitution, compared with wild-type or parental gene [5]: improved activities
